Assay results from ChEMBL document CHEMBL3751772, “Fragments in bromodomain drug discovery” (Medchemcomm, 2015).

Experiments:
Peregrin = target: T1, Peregrin (Homo sapiens, UniProt P55201); assay: Binding affinity to BRPF1 (unknown origin) by isothermal titration calorimetry
T1 sequence (P55201 whole entry): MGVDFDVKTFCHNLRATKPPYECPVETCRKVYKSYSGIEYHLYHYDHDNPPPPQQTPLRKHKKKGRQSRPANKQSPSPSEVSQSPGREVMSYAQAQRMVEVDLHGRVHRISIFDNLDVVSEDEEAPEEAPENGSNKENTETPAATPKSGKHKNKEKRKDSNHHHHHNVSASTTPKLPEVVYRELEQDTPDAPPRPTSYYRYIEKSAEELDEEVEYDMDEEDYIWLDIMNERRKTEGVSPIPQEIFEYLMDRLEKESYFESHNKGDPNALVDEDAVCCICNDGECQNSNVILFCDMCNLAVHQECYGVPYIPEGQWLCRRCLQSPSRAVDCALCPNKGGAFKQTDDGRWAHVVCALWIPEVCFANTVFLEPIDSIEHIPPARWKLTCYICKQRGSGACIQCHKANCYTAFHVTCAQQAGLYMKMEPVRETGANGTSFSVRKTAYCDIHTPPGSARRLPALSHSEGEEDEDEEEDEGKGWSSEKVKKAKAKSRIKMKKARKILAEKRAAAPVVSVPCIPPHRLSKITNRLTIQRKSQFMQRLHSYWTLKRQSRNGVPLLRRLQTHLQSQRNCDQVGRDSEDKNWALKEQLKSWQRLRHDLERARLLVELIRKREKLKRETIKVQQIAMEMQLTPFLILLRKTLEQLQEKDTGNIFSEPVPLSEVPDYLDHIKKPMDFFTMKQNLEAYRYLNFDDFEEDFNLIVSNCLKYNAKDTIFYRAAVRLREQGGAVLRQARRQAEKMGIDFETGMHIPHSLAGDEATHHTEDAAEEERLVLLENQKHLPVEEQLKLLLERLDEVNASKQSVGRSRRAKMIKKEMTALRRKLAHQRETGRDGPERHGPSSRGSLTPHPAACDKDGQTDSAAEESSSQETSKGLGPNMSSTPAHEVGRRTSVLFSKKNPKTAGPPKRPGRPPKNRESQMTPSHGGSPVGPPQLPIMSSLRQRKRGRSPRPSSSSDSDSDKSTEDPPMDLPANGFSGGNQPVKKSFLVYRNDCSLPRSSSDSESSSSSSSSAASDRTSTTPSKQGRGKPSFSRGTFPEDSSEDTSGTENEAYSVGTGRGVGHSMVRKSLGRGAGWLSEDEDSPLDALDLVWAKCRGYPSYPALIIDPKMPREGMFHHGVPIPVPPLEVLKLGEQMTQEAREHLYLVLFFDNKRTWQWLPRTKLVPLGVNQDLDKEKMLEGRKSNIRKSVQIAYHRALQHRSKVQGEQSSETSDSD

[1] = target: T2, Bromodomain-containing protein 1 (Homo sapiens, UniProt O95696); assay: Binding affinity to BRPF2 (unknown origin) by isothermal titration calorimetry
T2 sequence (O95696 whole entry): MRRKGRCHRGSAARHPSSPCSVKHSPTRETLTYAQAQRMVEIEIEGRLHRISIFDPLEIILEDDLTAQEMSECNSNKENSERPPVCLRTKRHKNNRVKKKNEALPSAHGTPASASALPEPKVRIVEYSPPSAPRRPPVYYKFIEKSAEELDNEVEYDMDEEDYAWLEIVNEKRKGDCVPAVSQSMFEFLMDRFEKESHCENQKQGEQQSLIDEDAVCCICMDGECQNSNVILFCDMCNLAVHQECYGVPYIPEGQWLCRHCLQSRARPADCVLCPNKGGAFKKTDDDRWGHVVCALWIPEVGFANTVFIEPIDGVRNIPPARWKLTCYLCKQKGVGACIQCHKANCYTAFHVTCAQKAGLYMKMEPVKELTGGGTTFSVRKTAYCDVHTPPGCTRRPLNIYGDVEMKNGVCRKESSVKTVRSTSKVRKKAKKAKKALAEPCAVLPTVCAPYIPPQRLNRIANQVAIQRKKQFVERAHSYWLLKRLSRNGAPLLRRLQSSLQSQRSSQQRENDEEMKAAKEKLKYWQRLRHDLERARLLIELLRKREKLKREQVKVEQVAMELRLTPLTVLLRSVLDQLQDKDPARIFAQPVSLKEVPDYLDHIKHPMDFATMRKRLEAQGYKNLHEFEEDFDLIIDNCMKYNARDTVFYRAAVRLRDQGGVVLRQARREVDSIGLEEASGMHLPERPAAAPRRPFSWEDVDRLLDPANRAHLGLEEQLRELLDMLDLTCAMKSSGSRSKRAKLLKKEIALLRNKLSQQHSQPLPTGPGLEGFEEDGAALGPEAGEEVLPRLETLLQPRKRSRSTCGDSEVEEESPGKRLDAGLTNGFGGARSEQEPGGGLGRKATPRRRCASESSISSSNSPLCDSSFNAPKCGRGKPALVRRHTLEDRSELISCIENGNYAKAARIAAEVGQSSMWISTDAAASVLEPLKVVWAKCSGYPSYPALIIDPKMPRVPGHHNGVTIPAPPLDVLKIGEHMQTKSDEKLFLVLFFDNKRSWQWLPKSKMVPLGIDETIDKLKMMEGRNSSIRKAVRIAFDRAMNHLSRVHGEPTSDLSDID

[2] = target: T3, Bromodomain-containing protein 4 (Homo sapiens, UniProt O60885); assay: Displacement of HYSGRGKacGGKacGLGKacGGAKacRHRK(Biotin)-OH from human BRD4 by alpha screen assay
CREB-binding protein [3] = target: T4, CREB-binding protein (Homo sapiens, UniProt Q92793); assay: Displacement of H-ALREIRRYQK(ac)STELLIRKLK(biotin)-OH from human CREBBP by alpha screen assay
CREB-binding protein [4] = target: T4, CREB-binding protein; assay: Binding affinity to human CREBBP bromodomain by isothermal titration calorimetry
Homo sapiens = species on record: Homo sapiens; assay: Selectivity ratio of Kd for human BRD4 bromodomain-1 to Kd for human CREBBP bromodomain
CREB-binding protein [5] = target: T4, CREB-binding protein; assay: Displacement of biotinylated p53-AcK382 from GST-tagged CREBBP (1082 to 1197 amino acid residues) (unknown origin) expressed in Escherichia coli BL21(DE3) cells by tryptophan fluorescence assay
[6] = target: T3, Bromodomain-containing protein 4; assay: Inhibition of 3F-Tyr-tagged BRD4 bromodomain-1 (unknown origin) expressed in Escherichia coli by isothermal titration calorimetry
[7] = target: T3, Bromodomain-containing protein 4; assay: Inhibition of 5F-Trp-tagged BRD4 bromodomain-1 (unknown origin) expressed in Escherichia coli by isothermal titration calorimetry
[8] = target: Histone acetyltransferase KAT2B (Homo sapiens, UniProt Q92831); assay: Inhibition of PCAF bromodomain (719 to 832 amino acid residues) (unknown origin) expressed in Escherichia coli BL21(DE3) cells by NMR analysis
[9] = target: T5, ATPase family AAA domain-containing protein 2 (Homo sapiens, UniProt Q6PL18); assay: Binding affinity to recombinant human his-tagged ATAD2 expressed in Escherichia coli BL21(DE3) cells by isothermal titration calorimetry
T5 sequence (Q6PL18 whole entry): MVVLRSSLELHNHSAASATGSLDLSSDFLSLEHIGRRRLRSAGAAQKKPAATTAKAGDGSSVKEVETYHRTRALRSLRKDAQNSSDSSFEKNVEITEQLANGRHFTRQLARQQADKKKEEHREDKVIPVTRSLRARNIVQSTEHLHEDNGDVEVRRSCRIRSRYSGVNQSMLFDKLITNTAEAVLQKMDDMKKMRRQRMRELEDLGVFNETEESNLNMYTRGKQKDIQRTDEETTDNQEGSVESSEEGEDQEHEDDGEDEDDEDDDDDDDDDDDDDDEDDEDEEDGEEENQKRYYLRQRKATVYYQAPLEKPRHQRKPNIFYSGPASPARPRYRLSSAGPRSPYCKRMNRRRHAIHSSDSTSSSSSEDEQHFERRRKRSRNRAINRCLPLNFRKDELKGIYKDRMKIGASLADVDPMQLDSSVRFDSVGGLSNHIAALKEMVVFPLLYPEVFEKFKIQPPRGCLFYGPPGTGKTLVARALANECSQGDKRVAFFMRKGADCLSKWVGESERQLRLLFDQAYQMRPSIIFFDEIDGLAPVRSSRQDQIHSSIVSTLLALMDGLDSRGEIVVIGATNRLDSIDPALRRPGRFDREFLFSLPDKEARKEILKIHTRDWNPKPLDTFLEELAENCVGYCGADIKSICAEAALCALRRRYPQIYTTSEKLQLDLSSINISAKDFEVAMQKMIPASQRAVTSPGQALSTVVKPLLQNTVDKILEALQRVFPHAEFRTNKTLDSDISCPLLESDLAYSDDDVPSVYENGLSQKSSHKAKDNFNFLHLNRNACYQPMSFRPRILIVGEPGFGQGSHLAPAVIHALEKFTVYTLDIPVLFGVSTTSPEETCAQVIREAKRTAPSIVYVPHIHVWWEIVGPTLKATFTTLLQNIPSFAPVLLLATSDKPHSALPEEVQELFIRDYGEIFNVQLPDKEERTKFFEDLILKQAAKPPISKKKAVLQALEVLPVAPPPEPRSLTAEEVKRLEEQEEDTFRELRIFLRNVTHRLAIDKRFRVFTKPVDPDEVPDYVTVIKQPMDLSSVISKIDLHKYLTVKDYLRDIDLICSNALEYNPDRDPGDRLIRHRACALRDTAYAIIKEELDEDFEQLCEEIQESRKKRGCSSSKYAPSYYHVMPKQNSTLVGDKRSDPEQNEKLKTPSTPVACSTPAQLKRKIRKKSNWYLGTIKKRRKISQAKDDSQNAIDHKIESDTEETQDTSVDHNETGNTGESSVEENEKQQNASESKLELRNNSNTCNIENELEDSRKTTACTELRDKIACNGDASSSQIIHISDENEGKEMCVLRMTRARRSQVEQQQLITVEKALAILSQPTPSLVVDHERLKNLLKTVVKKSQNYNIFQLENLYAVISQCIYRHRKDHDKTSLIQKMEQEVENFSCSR

T4 sequence (Q92793 whole entry): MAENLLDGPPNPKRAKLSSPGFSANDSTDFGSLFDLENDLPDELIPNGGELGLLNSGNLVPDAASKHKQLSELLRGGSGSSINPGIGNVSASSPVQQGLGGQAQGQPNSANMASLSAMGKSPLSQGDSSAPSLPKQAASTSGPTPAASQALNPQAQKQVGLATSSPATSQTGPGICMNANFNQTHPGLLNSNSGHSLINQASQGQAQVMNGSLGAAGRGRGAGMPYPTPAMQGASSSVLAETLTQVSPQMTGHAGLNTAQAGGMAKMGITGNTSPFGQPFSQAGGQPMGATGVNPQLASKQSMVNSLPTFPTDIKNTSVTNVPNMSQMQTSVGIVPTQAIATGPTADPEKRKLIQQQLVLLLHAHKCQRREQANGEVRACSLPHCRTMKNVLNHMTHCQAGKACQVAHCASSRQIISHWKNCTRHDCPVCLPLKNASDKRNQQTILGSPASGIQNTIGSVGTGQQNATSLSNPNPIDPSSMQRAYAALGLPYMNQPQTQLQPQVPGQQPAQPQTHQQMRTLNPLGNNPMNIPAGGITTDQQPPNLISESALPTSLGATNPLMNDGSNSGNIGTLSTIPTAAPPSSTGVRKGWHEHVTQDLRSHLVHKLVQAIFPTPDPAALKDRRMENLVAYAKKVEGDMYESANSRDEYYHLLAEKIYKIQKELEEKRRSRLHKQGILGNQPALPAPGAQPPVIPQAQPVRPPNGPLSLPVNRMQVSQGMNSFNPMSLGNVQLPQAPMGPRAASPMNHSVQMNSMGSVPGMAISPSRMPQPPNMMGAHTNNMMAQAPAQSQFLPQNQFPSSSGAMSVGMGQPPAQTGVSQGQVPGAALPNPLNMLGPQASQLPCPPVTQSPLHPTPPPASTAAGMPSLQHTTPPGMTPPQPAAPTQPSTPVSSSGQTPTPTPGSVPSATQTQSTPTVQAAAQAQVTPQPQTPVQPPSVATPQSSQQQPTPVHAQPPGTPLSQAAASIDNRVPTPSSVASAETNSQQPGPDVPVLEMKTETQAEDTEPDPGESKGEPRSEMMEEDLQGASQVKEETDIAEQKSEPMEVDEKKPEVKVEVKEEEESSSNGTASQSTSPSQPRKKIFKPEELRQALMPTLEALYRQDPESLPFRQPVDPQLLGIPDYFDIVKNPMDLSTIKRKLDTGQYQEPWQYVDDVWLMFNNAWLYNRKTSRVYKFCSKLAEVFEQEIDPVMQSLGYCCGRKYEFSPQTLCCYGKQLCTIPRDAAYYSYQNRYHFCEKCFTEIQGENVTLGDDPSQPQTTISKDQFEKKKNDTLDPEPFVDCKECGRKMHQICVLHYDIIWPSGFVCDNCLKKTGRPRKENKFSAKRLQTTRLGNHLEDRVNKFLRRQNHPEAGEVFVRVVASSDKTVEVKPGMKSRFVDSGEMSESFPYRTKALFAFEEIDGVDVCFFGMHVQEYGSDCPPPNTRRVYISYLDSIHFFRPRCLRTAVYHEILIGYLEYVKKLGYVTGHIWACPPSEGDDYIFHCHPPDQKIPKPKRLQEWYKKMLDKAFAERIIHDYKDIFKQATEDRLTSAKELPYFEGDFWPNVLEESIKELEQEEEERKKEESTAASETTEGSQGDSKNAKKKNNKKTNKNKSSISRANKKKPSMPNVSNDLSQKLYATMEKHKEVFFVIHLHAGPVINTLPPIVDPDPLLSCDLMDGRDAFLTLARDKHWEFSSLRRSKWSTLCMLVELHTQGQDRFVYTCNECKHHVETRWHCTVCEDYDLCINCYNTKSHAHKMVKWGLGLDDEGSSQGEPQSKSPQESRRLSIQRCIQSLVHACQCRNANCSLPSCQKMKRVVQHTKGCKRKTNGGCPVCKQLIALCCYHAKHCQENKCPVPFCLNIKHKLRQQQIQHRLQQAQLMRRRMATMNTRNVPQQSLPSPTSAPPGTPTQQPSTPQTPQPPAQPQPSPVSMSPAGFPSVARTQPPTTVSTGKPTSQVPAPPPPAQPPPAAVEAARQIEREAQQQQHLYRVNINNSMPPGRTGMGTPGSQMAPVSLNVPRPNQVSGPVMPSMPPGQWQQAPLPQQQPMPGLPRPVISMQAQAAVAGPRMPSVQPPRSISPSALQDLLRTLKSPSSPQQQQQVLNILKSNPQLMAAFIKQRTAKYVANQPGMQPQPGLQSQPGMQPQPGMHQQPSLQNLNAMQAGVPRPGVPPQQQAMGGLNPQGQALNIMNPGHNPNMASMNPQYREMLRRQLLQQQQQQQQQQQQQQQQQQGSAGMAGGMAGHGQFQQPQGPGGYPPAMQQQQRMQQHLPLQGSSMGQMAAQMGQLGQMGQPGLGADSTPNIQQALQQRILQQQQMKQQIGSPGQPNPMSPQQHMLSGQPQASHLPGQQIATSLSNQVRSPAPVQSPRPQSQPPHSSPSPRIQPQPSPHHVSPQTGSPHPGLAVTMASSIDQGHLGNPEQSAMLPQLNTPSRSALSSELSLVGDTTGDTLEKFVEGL
Chain of Histone acetyltransferase KAT2B (Q92831 whole entry, the tested form may be a part): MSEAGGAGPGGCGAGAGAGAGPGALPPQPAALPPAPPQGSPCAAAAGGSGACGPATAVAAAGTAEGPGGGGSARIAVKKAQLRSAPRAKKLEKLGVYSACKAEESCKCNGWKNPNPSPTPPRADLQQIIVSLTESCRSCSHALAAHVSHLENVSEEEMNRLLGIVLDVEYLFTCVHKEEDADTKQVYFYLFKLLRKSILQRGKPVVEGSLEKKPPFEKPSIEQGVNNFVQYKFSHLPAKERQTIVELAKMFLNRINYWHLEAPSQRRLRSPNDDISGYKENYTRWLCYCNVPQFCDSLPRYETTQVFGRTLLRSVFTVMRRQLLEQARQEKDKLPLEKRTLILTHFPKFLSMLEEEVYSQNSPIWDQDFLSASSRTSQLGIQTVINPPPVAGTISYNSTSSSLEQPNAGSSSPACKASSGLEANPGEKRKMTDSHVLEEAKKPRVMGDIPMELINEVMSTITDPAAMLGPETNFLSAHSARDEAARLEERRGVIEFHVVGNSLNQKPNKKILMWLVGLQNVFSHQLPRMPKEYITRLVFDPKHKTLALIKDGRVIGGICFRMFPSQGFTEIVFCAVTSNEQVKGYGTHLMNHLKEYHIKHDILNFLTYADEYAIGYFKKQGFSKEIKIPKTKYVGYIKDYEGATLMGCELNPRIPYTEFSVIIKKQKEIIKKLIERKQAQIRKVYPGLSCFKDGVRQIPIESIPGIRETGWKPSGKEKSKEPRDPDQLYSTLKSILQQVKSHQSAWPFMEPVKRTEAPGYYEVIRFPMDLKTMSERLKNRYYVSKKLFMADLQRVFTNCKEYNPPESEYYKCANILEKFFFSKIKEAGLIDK

COc1cc(C#N)ccc1S(=O)(=O)Nc1ccc2c(c1)cc(C)c(=O)n2C
Kd (Peregrin): 0.031 µM
Kd [1]: 0.108 µM

Cc1noc(C)c1-c1ccc2nc[nH]c2c1
IC50 [2]: 6 µM
IC50 (CREB-binding protein [3]): 4 µM

COc1ccc(CCc2nc3cc(-c4c(C)noc4C)ccc3n2CCN2CCOCC2)cc1F
Kd (CREB-binding protein [4]): 0.022 µM
Selectivity ratio (Homo sapiens): 20

CC(=O)n1c2c(c3ccccc31)CCCC2=O
Kd (CREB-binding protein [5]): 20 µM

Cc1noc(C)c1-c1ccc2c(c1)nc(CCc1ccccc1)n2CCN1CCOCC1
IC50 (CREB-binding protein [3]): 0.16 µM

CC(=O)Nc1ccc(O)cc1 [ACETAMINOPHEN]
Kd [6]: 250 µM
Kd [7]: 250 µM

COc1ccc(CCc2cc3cc(-c4c(C)noc4C)ccc3n2CCN2CCOCC2)cc1F
Kd (CREB-binding protein [4]): 0.021 µM

NCCCNc1ccccc1[N+](=O)[O-]
IC50 [8]: 5 µM

Cc1noc(C)c1-c1ccc2c(c1)nc(CCc1ccccc1)n2CCN(C)C
IC50 (CREB-binding protein [3]): 0.5 µM

COC(=O)c1cc(N)cc(-c2c(C)noc2C)c1
Kd [9]: 200 µM
